In US20240350647A1, “STING SENSITIZING AGENTS” (STipe Therapeutics ApS, priority 2023, published 2024):
Where a SMILES comes first, the peptide text is derived from it. Bridges are numbered along the chain shown (N, C = ends). [ ]: non-standard residue; d: D form. The star is where a group is joined. C16 diacid = O=C(O)CCCCCCCCCCCCCCC(=O)*; AEEA = NCCOCCOCC(=O)O

Tests used:
[1] = Pharmacokinetics after intravenous bolus, mouse; type: in vivo; details: 10 mg/kg bolus IV
Protocol: (§1) Test agents were formulated in 2% (v/v) propylene glycol in 25 mM HEPES, pH 7.4 and administered with a bolus injection at 10.0 mg/kg via the tail vain to male CD-1 mice (Charles River Laboratories) or male Wistar rats (Charles River Laboratories), or with a 30-min intravenous infusion at 4 mg/kg to male cynomolgus monkeys.
Blood samples were collected at 2.5, 5, 10, 30, 60, 120, 240 and 480 minutes after administration (mouse and rat), or at 5, 15, 30, 60, 120, 240, 360, 480 and 1440 min (Agent 1) or at 5, 15, 30, 45, 60, 90, 150, 240 and 480 min (Agent 2) after the start of infusion in monkeys. Samples were immediately mixed with a protease inhibitor cocktail (Roche cOmplete™ EDTA-free) before being cooled and centrifuged for plasma separation. Plasma samples were frozen and stored at −20° C. until analysis.
To rat samples, blank rat plasma was added up to a volume of 100 μl. […]
Mouse and rat samples: Separation was done with a C18 column (Phenomenex Kinetex XB—C18 (100×2.1 mm, 1.7 μm)), using a gradient between 1% formic acid in water and 2% DMSO in acetonitrile (Agent 1) or acetonitrile (Agent 2). […] The range of quantitation was 4-20,000 ng/mL.
(§2) Non-compartmental PK analysis on plasma concentration versus time data was analyzed by non-compartmental approaches using the WinNonlin software program (version 6.3 or above, Pharsight, Mountain View, CA). […]

[2] = FIG. 10B; details: rat, in vivo, iv, 10 mg/kg
Protocol: Table printed on a drawing sheet, FIG. 10B
The patent's description of the figure: FIGS. 10A-10C. Pharmacokinetic profile and parameter for peptides after intravenous administration. FIG. 10A) Mouse PK data (10 mg/kg, bolus IV, n=3 per timepoint). FIG. 10B) Rat PK data (10 mg/kg, bolus IV, n=3 per timepoint). FIG. 10C) Non-human primate (NHP) PK data (4 mg/kg, 30 min IV infusion, n=3). Error bars represent the standard deviation (SD).
First reader's note: Rat PK parameters; the plot legend on the same sheet gives 10 mg/kg (IV) for both agents, and the top-left cell 'PK parameters / rat' spans the first two rows.

[3] = Pharmacokinetics after 30-min intravenous infusion, cynomolgus monkey; type: in vivo; details: 4 mg/kg 30 min IV infusion
Protocol: as §1
Blood samples were collected at 2.5, 5, 10, 30, 60, 120, 240 and 480 minutes after administration (mouse and rat), or at 5, 15, 30, 60, 120, 240, 360, 480 and 1440 min (Agent 1) or at 5, 15, 30, 45, 60, 90, 150, 240 and 480 min (Agent 2) after the start of infusion in monkeys. […]
Monkey samples, Agent 1: Separation was done with a C18 column (Waters Acquity UPLC BEH C18 (50×2.1 mm, 1.7 μm)), using a gradient between 0.1% formic acid in water and 0.1% formic acid in acetonitrile. […] The range of quantitation was 10-3,000 ng/mL.
Monkey samples, Agent 2: Separation was done with a C18 column (Waters Acquity CSH C18 (50×2.1 mm, 1.7 μm)), using a gradient between 0.2% formic acid in acetonitrile and 0.2% formic acid in water. […] The range of quantitation was 10-10,000 ng/mL.
as §2

Compound: CC[C@H](C)[C@H](NC(=O)[C@H](CC(N)=O)NC(=O)[C@H](CCCCN)NC(=O)[C@H](C)NC(=O)[C@H](CCCCN)NC(=O)[C@H](CCCCN)NC(=O)COCCOCCNC(=O)COCCOCCNC(=O)CCCCCCCCCCCCCCC(=O)O)C(=O)N[C@H](C(=O)N[C@@H](CC(C)C)C(=O)N[C@@H](CC(C)C)C(=O)N[C@@H](CCCCN)C(=O)NCC(=O)N[C@@H](CC(C)C)C(=O)N[C@@H](CCC(=O)O)C(=O)N[C@H](C(=O)N[C@H](C(=O)N[C@@H](CC(N)=O)C(=O)N[C@@H](CC(=O)O)C(=O)N[C@@H](Cc1c[nH]c2ccccc12)C(=O)N[C@@H](Cc1c[nH]cn1)C(=O)N[C@@H](Cc1ccccc1)C(=O)N[C@H]1CSSC[C@@H](C(N)=O)NC(=O)[C@@H](CCCNC(=N)N)NC(=O)[C@H](CCCNC(=N)N)NC(=O)[C@@H](CCCCN)NC(=O)[C@H](CCCCN)NC(=O)[C@@H](CCCNC(=N)N)NC(=O)CNC(=O)[C@@H](CCCNC(=N)N)NC(=O)[C@H](CCCNC(=N)N)NC(=O)[C@@H](CCCNC(=N)N)NC1=O)[C@@H](C)CC)C(C)C)C(C)C [Agent 1] ({C16 diacid-AEEA-AEEA}-KKAKNIVLLKGLEVINDWHFC[dR]R[dR]G[dR]K[dK]R[dR]C-NH2; disulfide 21-31)
- increase in exposure (AUC0-inf) compared to Agent 2, at equal dose [1]: approximately 32 fold
- C0 [2]: 72.7 µg/mL
- increase in exposure (AUC0-inf) compared to Agent 2, at equal dose [3]: ~13 fold
